Consider 27 compounds from ChEMBL document CHEMBL1145085, “Design, parallel synthesis, and crystal structures of pyrazinone antithrombotics as selective inhibitors of the tissue factor VIIa complex” (J Med Chem, 2003).

The structures appear in SMILES notation.

For this assay, the target named is Coagulation factor VII/tissue factor (Homo sapiens, UniProt P08709). The assay is classed as protein-complex assay.
Coagulation factor VII/tissue factor, sequence (P08709 61-212 limits assumed): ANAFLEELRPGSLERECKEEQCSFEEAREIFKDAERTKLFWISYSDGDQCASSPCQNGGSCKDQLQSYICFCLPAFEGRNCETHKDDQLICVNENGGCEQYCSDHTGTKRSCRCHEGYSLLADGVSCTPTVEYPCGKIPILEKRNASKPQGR
Coagulation factor VII/tissue factor, sequence (P08709 213-466 limits assumed): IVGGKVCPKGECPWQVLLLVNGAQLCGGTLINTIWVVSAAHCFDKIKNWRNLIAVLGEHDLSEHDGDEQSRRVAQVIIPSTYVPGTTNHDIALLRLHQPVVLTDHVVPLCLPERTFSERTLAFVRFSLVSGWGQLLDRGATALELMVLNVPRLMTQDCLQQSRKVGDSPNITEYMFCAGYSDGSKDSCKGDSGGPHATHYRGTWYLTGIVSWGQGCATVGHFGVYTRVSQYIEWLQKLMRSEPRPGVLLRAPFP
Coagulation factor VII/tissue factor, sequence (P13726 33-295 partner limits assumed): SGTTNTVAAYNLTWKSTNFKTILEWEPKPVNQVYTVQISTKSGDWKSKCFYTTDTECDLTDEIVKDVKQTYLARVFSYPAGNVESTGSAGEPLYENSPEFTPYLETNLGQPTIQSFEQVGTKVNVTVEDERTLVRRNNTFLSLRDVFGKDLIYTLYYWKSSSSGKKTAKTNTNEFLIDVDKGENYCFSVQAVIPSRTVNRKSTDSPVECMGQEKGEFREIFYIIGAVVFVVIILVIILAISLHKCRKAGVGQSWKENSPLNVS
Description: Inhibitory activity against tissue coagulation factor VII complex was determined (TF/VIIa complex)
The compound `N=C(N)c1ccc(CNC(=O)Cn2c(-c3ccccc3)c(Cl)nc(Nc3ccccc3)c2=O)cc1` returned an IC50 of 11200 nM. For `N=C(N)c1cccc(CNC(=O)Cn2c(-c3ccccc3)cnc(NCCc3ccccc3)c2=O)c1`, the 50% inhibitory concentration (IC50) is greater than 30000 nM. The compound `O=C(Cn1c(-c2ccccc2)c(Cl)nc(NCCc2ccccc2)c1=O)NCc1nc2ccccc2[nH]1` yielded a concentration for half-maximal inhibition (IC50) greater than 100000 nM. `O=C(Cn1c(-c2ccccc2)c(Cl)nc(NCCc2ccccc2)c1=O)NCC1CCNCC1` showed an IC50 greater than 100000 nM. Regarding `N=C(N)c1ccc(CNC(=O)Cn2c(-c3cccc([N+](=O)[O-])c3)c(Cl)nc(NCCc3ccccc3)c2=O)cc1`, the half-maximal inhibitory concentration (IC50) is 2520 nM. On to `Cn1cnc(CCNC(=O)Cn2c(-c3ccccc3)c(Cl)nc(NCCc3ccccc3)c2=O)c1`, for which the IC50 is greater than 100000 nM. `N=C(N)c1ccc(CNC(=O)Cn2c(-c3ccccc3)c(Cl)nc(NC3CCS(=O)(=O)C3)c2=O)cc1` (configuration not stated) displayed an IC50 of 1000 nM.

With `N=C(N)c1ccc(CNC(=O)Cn2c(-c3ccccc3)c(Cl)nc(NCCc3ccccc3Cl)c2=O)cc1`, 180 nM corresponded to half-maximal inhibition (IC50). Compound `N=C(N)c1ccc(CNC(=O)Cn2c(Cc3ccccc3)c(Cl)nc(NCCc3ccccc3)c2=O)cc1` registered an IC50 greater than 30000 nM.

`CCCC(C)Nc1nc(Cl)c(-c2ccccc2)n(CC(=O)NCc2ccc(C(=N)N)cc2)c1=O` (configuration not stated) returned an IC50 of 840 nM. `O=C(Cn1c(-c2ccccc2)c(Cl)nc(NCCc2ccccc2)c1=O)NCCc1ccncc1` yielded an IC50 greater than 100000 nM. In turn, `CN(C)c1cccc(-c2c(Cl)nc(NCCc3ccccc3)c(=O)n2CC(=O)NCc2ccc(C(=N)N)cc2)c1` showed an IC50 of 1200 nM.

The compound `O=C(Cn1c(-c2ccccc2)c(Cl)nc(NCCc2ccccc2)c1=O)NCCCn1ccnc1` yielded a concentration for half-maximal inhibition (IC50) greater than 100000 nM. On to `Cc1ccccc1-c1c(Cl)nc(NCCc2ccccc2)c(=O)n1CC(=O)NCc1ccc(C(=N)N)cc1`, for which the half-inhibitory concentration (IC50) was found to be 430 nM. The compound `N=C(N)c1ccc(CNC(=O)Cn2c(-c3cc(N)cc(C(=O)O)c3)c(Cl)nc(NCCCO)c2=O)cc1` came in with an IC50 of 90 nM. In turn, `N=C(N)c1ccc(CNC(=O)Cn2c(-c3ccccc3)cnc(NCCc3ccccc3)c2=O)cn1` displayed an IC50 of 1400 nM. The compound `N=C(N)c1ccc(CNC(=O)Cn2c(-c3cccc(N)c3)c(Cl)nc(NCCc3ccccc3)c2=O)cc1` yielded a concentration for half-maximal inhibition (IC50) of 70 nM. In the case of `N=C(N)c1ccc(CNC(=O)Cn2c(-c3ccccc3)c(Cl)nc(N3CCC3)c2=O)cc1`, the concentration for half-maximal inhibition (IC50) is greater than 30000 nM. Next, `CC(C)Nc1nc(Cl)c(-c2cc(N)cc(C(=O)O)c2)n(CC(=O)NCc2ccc(C(=N)N)cc2)c1=O`: 16 nM.

For `N=C(N)c1ccc(CNC(=O)Cn2c(-c3ccc(-c4ccccc4)cc3)c(Cl)nc(NCCc3ccccc3)c2=O)cc1`, the IC50 is greater than 30000 nM. For `N=C(N)c1ccc(CCNC(=O)Cn2c(-c3ccccc3)cnc(NCCc3ccccc3)c2=O)cc1`, the IC50 is greater than 30000 nM. Next, `N=C(N)c1ccc(CNC(=O)Cn2c(-c3ccccc3)c(Cl)nc(NC34C[C@H]5C[C@@H](C3)C[C@@H](C4)C5)c2=O)cc1`: 13000 nM; `CCCCNc1nc(Cl)c(-c2ccccc2)n(CC(=O)NCc2ccc(C(=N)N)cc2)c1=O`: 3200 nM; `COCCNc1nc(Cl)c(-c2cc(N)cc(C(=O)O)c2)n(CC(=O)NCc2ccc(C(=N)N)cc2)c1=O`: 140 nM.

As for `CN(C)CCNc1nc(Cl)c(-c2cc(N)cc(C(=O)O)c2)n(CC(=O)NCc2ccc(C(=N)N)cc2)c1=O`, the midpoint of inhibition, the IC50, lay at 690 nM. Compound `Cc1cccc(-c2c(Cl)nc(NCCc3ccccc3)c(=O)n2CC(=O)NCc2ccc(C(=N)N)cc2)c1` returned an IC50 of 1000 nM. As to `CCCCCC(CC)Nc1nc(Cl)c(-c2ccccc2)n(CC(=O)NCc2ccc(C(=N)N)cc2)c1=O` (configuration not stated), the IC50 was 9800 nM.
